Reference: US20250110133A1, “METHOD AND KIT FOR PREDICTING DRUG EFFICACY OF LUNG CANCER TREATMENT AND METHOD FOR TREATING LUNG CANCER” (National Health Research Institutes, priority 2023, published 2025)
Entries after “also recorded” stand apart in the source; their conditions may differ. Like-named read-outs stand apart in the source and are kept apart here.

Tests used:
PC9 cells [1] = experiment: Colony formation assay for gefitinib sensitivity; assay type: cell-based, human; conditions: 10-day treatment
Procedure: Data are presented as mean±standard error of mean, n=3. Differences between shLDOC1 and shCtrl at each indicated concentration are analyzed using Student's t test; * p<0.05 and ** p<0.01.

PC9 cells [2] = experiment: cells; conditions: Homo sapiens, PC-9, 72 h, read-out: half-maximal inhibitory concentration (IC50)
Procedure: (§1) Cells were seeded in 96-well cell culture plates and treated the next day with the indicated concentrations of indicated EGFR-TKI. After 3 days, cell numbers were determined with MTT assay.
(§2) All cells are cultured in media containing 10% FBS (Gibco), 1% penicillin (Thermo Fisher, Waltham, MA, USA), and 1% streptomycin (Thermo Fisher); the cells are incubated at 37° C. in a humidified chamber with 5% CO2.
(§3) Cells are seeded at a density of 5×10^3 per well in a 96-well plate. […] An appropriate amount of DMSO is also added to the control cells. After 72 h of treatment, the cells are incubated with a solution of MTT (3-(4,5-dimethylthiazol-2-yl)-2,5-diphenyltetrazolium bromide) (Sigma-Aldrich) for 4 h at 37° C. Subsequently, the medium is aspirated, and 100 μL DMSO is added to solubilize the formazan. Colored formazan converted from MTT using viable cells is measured at 570 nm with a microplate reader (BioRad). Experiments are performed in triplicate. IC50 values are determined using the scientific and statistical software GraphPad Prism 10.0.0.

PC9 cells [3] = tested on: PC9 cells
Procedure: as §1, §2, §3

HCC827 cells [4] = conditions: read-out: half-maximal inhibitory concentration (IC50)
Procedure: (§4) The HCC827 cell line is provided by Dr. Yi-Rong Chen from the Institute of Molecular and Genomic Medicine, National Health Research Institutes, Taiwan. […] PC9 and HCC827 cells are maintained in RPMI1640 (Cytiva). […] All cells are cultured in media containing 10% FBS (Gibco), 1% penicillin (Thermo Fisher, Waltham, MA, USA), and 1% streptomycin (Thermo Fisher); the cells are incubated at 37° C. in a humidified chamber with 5% CO2. […] The cells are checked for Mycoplasma (BioSmart, Seoul, Republic of Korea) upon thawing, and throughout the experimental period they consistently tested negative for Mycoplasma.
as §3

HCC827 cells [5] = experiment: cells; conditions: Homo sapiens, HCC827, 72 h, read-out: half-maximal inhibitory concentration (IC50)
Procedure: as §4, §3

Structure (SMILES)	colony formation under drug treatment (PC9 cells [1]; LDOC1-depleted (shLDOC1) PC9 cells)	colony formation under drug treatment (PC9 cells [1]; PC9-shCtrl cells)	IC50 (PC9 cells [2])	IC50 / inhibitory effect in shLDOC1 cells compared with shCtrl cells (PC9 cells [3])	IC50 (HCC827 cells [4])	IC50 (HCC827 cells [5])
COc1cc2ncnc(Nc3ccc(F)c(Cl)c3)c2cc1OCCCN1CCOCC1 [gefitinib]	increased the number of cell colonies; also recorded: survive and form colonies	no colonies	–	–	–	–
C=CC(=O)Nc1cc(Nc2nccc(-c3cn(C)c4ccccc34)n2)c(OC)cc1N(C)CCN(C)C [osimertinib]	–	–	900 nM	almost the same inhibitory effect	2300 nM	1800 nM
